Experimental data as given in patent US8309111B2, “High alcohol content foaming compositions with silicone-based surfactants” (Deb Worldwide Healthcare Inc., priority 2005, dated 2012).

Test: Foam evaluation of the prepared solutions: whether foam was produced, and foam description and quality
Type: physicochemical
Protocol: Examples 1 through 12 were prepared to illustrate the ability to produce alcohol-based disinfecting formulations which can be dispensed as foams using different surfactants and a solution of water and 50% ethanol. Examples 13 through 16 illustrate increasing concentrations of a silicone-based surfactant to produce foam with 40% ethanol. Examples 17 through 32 show increasing concentrations of ethanol with different silicone-based surfactants to produce foam. Examples 33 through 36 illustrate increasing concentrations of a silicone-based surfactant to produce acceptable foam at 62% ethanol. Examples 37 through 52 illustrate the ability to produce foam using different surfactants and a solution of 70% v/v Isopropanol. All parts and percentages are expressed by weight unless otherwise indicated.
The following examples were intended to evaluate the foaming ability of different groups of silicone surfactants with different combinations of ethanol, n-propyl alcohol and Isopropyl alcohol. They were also designed to asses the effect in the after feel as well as in the foam quality of some emollients and humectants, lipids, and other cosmetic type desired ingredients to be used with a leave-on hand sanitizer product. […]
The solutions prepared, were evaluated as to whether foam was produced or not and if so, then the foam produced was described as follows: […]

Foam result compared with silicone-based surfactants (CAPB alone, 40% ethanol, 3% CAPB, versus 60% v/v ethanol with less than 1.0% silicone-based surfactant): unable to produce as good results
Acceptable foam (above 40% ethanol): does not give any acceptable foam
Substance: Cocamidopropyl betaine
